Test results: patent US20050209198A1, “Pharmaceutical composition comprising a bisphosphonate and a cox-2 inhibitor for the treatment of bone diseases” (priority 2002, published 2005)

Key:
[1] = test system: patients with postmenopausal osteoporosis; experiment: Pain scores and general well being in the same trial, oral COX-2 inhibitor vs oral placebo; type: in vivo; conditions: 400 mg per day p.o. vs oral placebo, on zoledronic acid or placebo background
Protocol: (§1) A dose and dose regimen-finding 24 months trial of iv zoledronic acid in patients with postmenopausal osteoporosis is carried out. Three hundred and fifty one patients are randomized to six study arms. […] All patients are evaluated at baseline and in 3-monthly visits. Zoledronic acid or placebo was administered as a bolus iv injection into a peripheral vein over 5 minutes at every visit. Patients from both zoledronic acid treated and placebo groups also receive an oral COX-2 inhibitor (5-methyl-2-(2′-chloro-6′-fluoroanilino)phenylacetic acid—400 mg per day p.o.) or oral placebo.
(§2) Efficacy is ascertained by measurement of percent change from baseline in bone mineral density (BMD) measured by dual energy X-ray absorptiometry (DEXA) as compared to placebo, at 6, 9, and 12 months. Patients also maintain records of pain scores on a once weekly basis and are monitored for pain scores at the 3-monthly visits.

[2] = test system: patients with postmenopausal osteoporosis; experiment: 24 months trial of iv zoledronic acid, bone mineral density (BMD) by DEXA; type: in vivo; conditions: bolus iv, dose administration as infrequent as every 6 or 12 months, compared to placebo
Protocol: as §1, §2
• Placebo • 0.25 mg zoledronic acid every 3 months • 0.5 mg zoledronic acid every 3 months • 1.0 mg zoledronic acid every 3 months • 2.0 mg zoledronic acid every 6 months • 4.0 mg zoledronic acid every 12 months each with 50% COX-2 treatment and 50% oral placebo.

Structure (SMILES)	pain scores and general well being of patients [1]	bone mineral density (BMD), bone mass change [2]
Cc1ccc(Nc2c(F)cccc2Cl)c(CC(=O)O)c1 [COX-2, 5-methyl-2-(2′-chloro-6′-fluoroanilino)phenylacetic acid]	show improvement over the oral placebo treated groups	
O=P(O)(O)C(O)(Cn1ccnc1)P(=O)(O)O [zoledronic acid, 1-hydroxy-2-(imidazol-1-yl)ethane-1,1-diphosphonic acid]		statistically significant and medically relevant bone mass increase
